Measured values as given in patent US20120115724A1, “METHOD OF CONTROLLING UNDESIRED VEGETATION” (SYNGENTA CROP PROTECTION LLC, priority 2009, published 2012).

Tests used:
CHEAL Chenopodium album = test: Post-emergence crop and weed test (Example 15); type: in vivo; conditions: 360 h, 125 g/ha, after 15 days, read-out: Percentage damage CHEAL
Procedure, shortened: (§1)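 Post-emergence spray on 14-day glasshouse plants; 5% formulated stock diluted with water + 0.2% (v/v) X-77. Grown on at 22/16 °C, 16 h light, 65% RH, watered twice daily. Visual damage rated day 15, 0–100 scale.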

VERPE Veronica persica = test: Post-emergence crop and weed test (Example 15); type: in vivo; conditions: 360 h, 125 g/ha, after 15 days, read-out: Percentage damage VERPE
Procedure, shortened: as §1

SINAR Sinapis arvensis = test: Post-emergence crop and weed test (Example 15); type: in vivo; conditions: Mutarda arvensis, 360 h, 125 g/ha, after 15 days, read-out: Percentage damage SINAR
Procedure, shortened: as §1

[1] = tested on: ABUTH Abutilon theophrasti; test: Post-emergence crop and weed test (Example 15); type: in vivo; conditions: 360 h, 125 g/ha, after 15 days, read-out: Percentage damage ABUTH
Procedure, shortened: as §1

[2] = tested on: EPHHL Euphorbia heterophylla; test: Post-emergence crop and weed test (Example 15); type: in vivo; conditions: 360 h, 125 g/ha, after 15 days, read-out: Percentage damage EPHHL
Procedure, shortened: as §1

[3] = tested on: XANST Xanthium strumarium; test: Post-emergence crop and weed test (Example 15); type: in vivo; conditions: 360 h, 125 g/ha, after 15 days, read-out: Percentage damage XANST
Procedure, shortened: as §1

[4] = tested on: POLCO Polygonum convolvulus; test: Post-emergence crop and weed test (Example 15); type: in vivo; conditions: Fallopia convolvulus, 360 h, 125 g/ha, after 15 days, read-out: Percentage damage POLCO
Procedure, shortened: as §1

[5] = tested on: AMARE Amaranthus retroflexus; test: Post-emergence crop and weed test (Example 15); type: in vivo; conditions: 360 h, 125 g/ha, after 15 days, read-out: Percentage damage AMARE
Procedure, shortened: as §1

GLXMA Soybean = test: Post-emergence crop and weed test (Example 15); type: in vivo; conditions: Glycine max, 360 h, 125 g/ha, after 15 days, read-out: Percentage damage GLXMA
Procedure, shortened: as §1

SIDSP Sida spinosa = test: Post-emergence crop and weed test (Example 15); type: in vivo; conditions: 360 h, 125 g/ha, after 15 days, read-out: Percentage damage SIDSP
Procedure, shortened: as §1

GALAP Galium aparine = test: Post-emergence crop and weed test (Example 15); type: in vivo; conditions: 360 h, 125 g/ha, after 15 days, read-out: Percentage damage GALAP
Procedure, shortened: as §1

KCHSC Kochia scoparia = test: Post-emergence crop and weed test (Example 15); type: in vivo; conditions: Bassia scoparia, 360 h, 125 g/ha, after 15 days, read-out: Percentage damage KCHSC
Procedure, shortened: as §1

IPOHE Ipomoea hederacea = test: Post-emergence crop and weed test (Example 15); type: in vivo; conditions: 360 h, 125 g/ha, after 15 days, read-out: Percentage damage IPOHE
Procedure, shortened: as §1

[6] = tested on: Amaranthus retroflexus (AMARE); test: Pre-emergence biological efficacy (Example 13); type: in vivo; conditions: Amaranthus retroflexus, 312 h; pre-emergence, 1,000 g/ha, after 13 days; read-out: Percentage damage AMARE
Procedure, shortened: (§2)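 Pre-emergence spray, 250 or 1000 g/ha, applied one day post-sowing; formulation acetone/water 50:50 + 0.5% Tween 20, diluted aqueous. Glasshouse 24/16 °C, 14 h light, 65% RH, watered twice daily. Scored day 13, 0–100% damage.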

[7] = tested on: Ipomea hederaceae (IPOHE); test: Pre-emergence biological efficacy (Example 13); type: in vivo; conditions: Ipomoea hederacea, 312 h; pre-emergence, 1,000 g/ha, after 13 days; read-out: Percentage damage IPOHE
Procedure, shortened: as §2

Setaria faberi (SETFA) [8] = test: Pre-emergence biological efficacy (Example 13); type: in vivo; conditions: Setaria faberi, 312 h; pre-emergence, 1,000 g/ha, after 13 days; read-out: Percentage damage SETFA
Procedure, shortened: as §2

[9] = tested on: Alopecurus myosuroides (ALOMY); test: Pre-emergence biological efficacy (Example 13); type: in vivo; conditions: Alopecurus myosuroides, 312 h; pre-emergence, 1,000 g/ha, after 13 days; read-out: Percentage damage ALOMY
Procedure, shortened: as §2

[10] = tested on: Echinochloa crus-galli (ECHCG); test: Pre-emergence biological efficacy (Example 13); type: in vivo; conditions: Echinochloa crus-galli, 312 h; pre-emergence, 1,000 g/ha, after 13 days; read-out: Percentage damage ECHCG
Procedure, shortened: as §2

Solanum nigrum (SOLNI) [11] = test: Pre-emergence biological efficacy (Example 13); type: in vivo; conditions: Solanum nigrum, 312 h; pre-emergence, 1,000 g/ha, after 13 days; read-out: Percentage damage SOLNI
Procedure, shortened: as §2

[12] = tested on: Amaranthus retroflexus (AMARE); test: Post-emergence biological efficacy (Example 14); type: in vivo; conditions: Amaranthus retroflexus, 312 h; post-emergence, 1,000 g/ha, after 13 days; read-out: Percentage damage AMARE
Procedure, shortened: (§3)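 Visual damage rating, 0 (none) to 100 (total), taken 13 days after spraying. Plants sown in standard soil, grown 8 days at 24/16 °C, 14 h light, 65% RH, then treated at 250 or 1000 g/ha from acetone/water 50:50 with 0.5% Tween 20; watered twice daily.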

[13] = tested on: Ipomea hederaceae (IPOHE); test: Post-emergence biological efficacy (Example 14); type: in vivo; conditions: Ipomoea hederacea, 312 h; post-emergence, 1,000 g/ha, after 13 days; read-out: Percentage damage IPOHE
Procedure, shortened: as §3

Setaria faberi (SETFA) [14] = test: Post-emergence biological efficacy (Example 14); type: in vivo; conditions: Setaria faberi, 312 h; post-emergence, 1,000 g/ha, after 13 days; read-out: Percentage damage SETFA
Procedure, shortened: as §3

[15] = tested on: Alopecurus myosuroides (ALOMY); test: Post-emergence biological efficacy (Example 14); type: in vivo; conditions: Alopecurus myosuroides, 312 h; post-emergence, 1,000 g/ha, after 13 days; read-out: Percentage damage ALOMY
Procedure, shortened: as §3

[16] = tested on: Echinochloa crus-galli (ECHCG); test: Post-emergence biological efficacy (Example 14); type: in vivo; conditions: Echinochloa crus-galli, 312 h; post-emergence, 1,000 g/ha, after 13 days; read-out: Percentage damage ECHCG
Procedure, shortened: as §3

Solanum nigrum (SOLNI) [17] = test: Post-emergence biological efficacy (Example 14); type: in vivo; conditions: Solanum nigrum, 312 h; post-emergence, 1,000 g/ha, after 13 days; read-out: Percentage damage SOLNI
Procedure, shortened: as §3

C=Cc1c(NCc2ccco2)nc(-c2ccc(Cl)c(OC)c2F)nc1C(=O)OC [Compound 6, 2-(4-chloro-2-fluoro-3-methoxyphenyl)-5-ethenyl-4-(furan-2-ylmethylamino)-6-methoxycarbonylpyrimidine]
10%: plant injury at 125 g/ha (GLXMA Soybean)
90%: pest or weed control at 125 g/ha (CHEAL Chenopodium album) | pest or weed control at 125 g/ha [2] | pest or weed control at 1000 g/ha [7] | pest or weed control at 1000 g/ha (Setaria faberi (SETFA) [14]) | pest or weed control at 1000 g/ha (Solanum nigrum (SOLNI) [17])
100 to 102 °C: melting point
60%: pest or weed control at 125 g/ha (SINAR Sinapis arvensis) | pest or weed control at 125 g/ha (KCHSC Kochia scoparia)
70%: pest or weed control at 125 g/ha (VERPE Veronica persica) | pest or weed control at 125 g/ha [4] | pest or weed control at 125 g/ha (GALAP Galium aparine) | pest or weed control at 1000 g/ha [9]
100%: pest or weed control at 125 g/ha [3] | pest or weed control at 125 g/ha [5] | pest or weed control at 1000 g/ha [6] | pest or weed control at 1000 g/ha (Solanum nigrum (SOLNI) [11]) | pest or weed control at 1000 g/ha [12]
80%: pest or weed control at 125 g/ha [1] | pest or weed control at 125 g/ha (SIDSP Sida spinosa) | pest or weed control at 125 g/ha (IPOHE Ipomoea hederacea) | pest or weed control at 1000 g/ha (Setaria faberi (SETFA) [8]) | pest or weed control at 1000 g/ha [10] | pest or weed control at 1000 g/ha [13] | pest or weed control at 1000 g/ha [15] | pest or weed control at 1000 g/ha [16]
